In article PMC6934184, “Selective DNA-PKcs inhibition extends the therapeutic index of localized radiotherapy and chemotherapy” (The Journal of Clinical Investigation, 2019):

Biological target: T1, KIT T670I (Homo sapiens, UniProt P10721, T670I)
T1 construct: purchased Thermo Fisher Scientific (Life Technologies) SelectScreen
Test: SelectScreen Z'LYTE
Assay type: biochemical
Summary of the method: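 Percent values come from Thermo SelectScreen profiling of NU5455, combining activity and binding assays. CSF1R was run in Z'LYTE format at Km app ATP, and CAMK1 in Adapta format with ATP listed at 10.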

T1 sequence (P10721 26-976 T670I): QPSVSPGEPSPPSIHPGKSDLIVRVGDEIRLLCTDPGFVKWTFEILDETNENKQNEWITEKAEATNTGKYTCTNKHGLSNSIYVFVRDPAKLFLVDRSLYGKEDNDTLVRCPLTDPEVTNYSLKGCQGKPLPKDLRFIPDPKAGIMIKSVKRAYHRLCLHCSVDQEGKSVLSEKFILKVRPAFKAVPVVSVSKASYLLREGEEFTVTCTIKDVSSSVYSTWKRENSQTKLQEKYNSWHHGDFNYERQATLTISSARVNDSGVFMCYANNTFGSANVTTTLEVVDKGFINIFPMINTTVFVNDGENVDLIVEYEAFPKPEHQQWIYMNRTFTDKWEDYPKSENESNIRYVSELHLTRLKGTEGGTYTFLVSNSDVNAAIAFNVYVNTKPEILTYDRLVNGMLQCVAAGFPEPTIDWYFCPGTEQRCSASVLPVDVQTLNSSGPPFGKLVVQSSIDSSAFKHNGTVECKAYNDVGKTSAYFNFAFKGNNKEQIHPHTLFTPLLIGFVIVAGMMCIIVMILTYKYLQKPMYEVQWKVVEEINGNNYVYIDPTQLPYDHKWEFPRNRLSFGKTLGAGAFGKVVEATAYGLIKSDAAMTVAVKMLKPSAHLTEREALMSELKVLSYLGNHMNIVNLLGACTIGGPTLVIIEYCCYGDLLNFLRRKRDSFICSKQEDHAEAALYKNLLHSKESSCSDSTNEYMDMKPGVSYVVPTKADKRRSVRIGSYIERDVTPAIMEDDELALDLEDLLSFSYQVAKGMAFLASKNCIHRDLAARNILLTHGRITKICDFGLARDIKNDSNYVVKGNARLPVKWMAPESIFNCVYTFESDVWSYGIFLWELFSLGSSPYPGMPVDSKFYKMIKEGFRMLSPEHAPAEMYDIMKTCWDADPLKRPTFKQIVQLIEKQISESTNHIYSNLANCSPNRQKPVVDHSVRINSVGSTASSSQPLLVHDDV

Compound: CN(C(=O)CN1CCOCC1)c1ccc2sc3c(-c4cccc5c(=O)cc(N6CC7CCC(C6)O7)oc45)cccc3c2c1 [NU5455]
- inhibition at 1 µM: -24.4%
